A value given as a limit tells only on which side of the number the result lay.

In patent US20220324835A1 (Nurix Therapeutics, Inc., priority 2018, published 2022) one finds fold induction, IC50 and Kd data, which are given here for twelve compounds.

Assay [1] deals with T-cell. The assay is described as follows: CD25 cell surface staining on T-cells co-stimulated with anti-CD3 and anti-CD28 antibody (Biological Example 2). The note with it: Homo sapiens, T-cell, fold change over baseline, primary human total T-cells, read-out: CD25 staining Anti-CD3/Anti-CD28 stimulation; for fold induction at 0.3 µM: 0.3 μM Cbl-b inhibitor; for fold induction at 1 µM: 1 μM Cbl-b inhibitor; for fold induction at 4 µM: 4 μM Cbl-b inhibitor. In kind it is cell-based, human. The gist of the method:
(§1)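 T-cells were stimulated with anti-CD3 antibody alone or with anti-CD28 antibody, in the presence or absence of Cbl-b inhibitor. IL-2 secretion or CD25 surface staining was measured, and values expressed as fold over the uninhibited baseline […].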

In assay [2] the target is T1, Cbl-b (Homo sapiens, UniProt Q13191). Description: Cbl-b activity assay (Cbl-b inhibition assay), TR-FRET of Cbl-b interaction with UbcH5B-Ub. It counts as biochemical. The note with it: assay buffer with 100 mM NaCl, 60 nM Src kinase; read-out: Cbl-b activity IC50. The gist of the method:
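UbcH5B (C85K) conjugated to N-terminally Bodipy-Fluorescein-labeled ubiquitin served as the fluorescent partner. After compound preincubation, Src kinase (60 nM) with 1 mM ATP and 5 mM MgCl2 (final) was added for 1.5 h, followed by a further 1 h incubation. Some values were obtained with 50 mM NaCl and 30 nM Src.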

A further assay addresses Cbl-b (residues 36-427) (Homo sapiens, UniProt Q13191). The assay is described as follows: Cbl-b binding assay (SPR, Biacore T200). The note with it: 20° C., 1:1 binding model. Summed up:
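Steps: capture protein on NeutrAvidin surface; inject compound dilutions (8 or 10 points from 100 or 50 μM) 50 s; allow 90-180 s dissociation; regenerate 20 s with 0.3 M NaCl. Runs at 20° C in HEPES pH 7.5/100 mM NaCl/2% DMSO; 1:1 fitting.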

Assay [3] relates to T-cell. Description: IL-2 secretion from T-cells co-stimulated with anti-CD3 and anti-CD28 antibody (Biological Example 2). In kind it is cell-based, human. The following applies: Homo sapiens, T-cell, fold change over baseline, primary human total T-cells, read-out: IL-2 secretion Anti-CD3/Anti-CD28 stimulation; for fold induction at 0.3 µM: 0.3 μM Cbl-b inhibitor; for fold induction at 1 µM: 1 μM Cbl-b inhibitor; for fold induction at 4 µM: 4 μM Cbl-b inhibitor. Summed up:
as §1

Assay [4] has as its target T1, Cbl-b. The assay is described as follows: Cbl-b inhibition assay (Cbl-b activity assay, FRET, Biological Example 1; 100 mM NaCl, 60 nM Src kinase). In kind it is biochemical. The following applies: upper bound stated in text lists; read-out: IC50 values in the Cbl-b inhibition assay of Biological Example 1. The gist of the method:
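Binding-based Cbl-b activity assay. Src-phosphorylated, N-terminally biotin-Avi-tagged Cbl-b recruits labelled UbcH5B-Ub, and proximity to streptavidin-terbium yields FRET.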

Chain of Cbl-b (residues 36-427) (Q13191 36-427): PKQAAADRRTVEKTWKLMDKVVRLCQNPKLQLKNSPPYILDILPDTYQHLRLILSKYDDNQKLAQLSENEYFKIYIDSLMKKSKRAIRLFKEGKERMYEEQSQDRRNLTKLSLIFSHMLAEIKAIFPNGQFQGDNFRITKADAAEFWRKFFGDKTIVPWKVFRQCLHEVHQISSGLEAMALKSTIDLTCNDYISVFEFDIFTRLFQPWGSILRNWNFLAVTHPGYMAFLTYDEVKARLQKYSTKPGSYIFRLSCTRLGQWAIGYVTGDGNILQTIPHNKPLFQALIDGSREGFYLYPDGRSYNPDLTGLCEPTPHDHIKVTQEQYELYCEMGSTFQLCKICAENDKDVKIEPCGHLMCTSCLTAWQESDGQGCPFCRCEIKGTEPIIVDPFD
T1 sequence (Q13191 36-427): as above

For `C[C@H](Sc1nncn1C)c1cccc(NC(=O)c2cc(C3CC3)cc(C(F)(F)F)n2)c1` [Compound 67, (S)-4-cyclopropyl-N-(3-(1-((4-methyl-4H-1,2,4-triazol-3-yl)thio)ethyl)phenyl)-6-(trifluoromethyl)picolinamide], the fold induction at 0.3 µM with T-cell [1] lay within 1.01 to 1.3; with T-cell [3] it was 1.01 to 2.5. Besides, the fold induction at 1 µM with T-cell [1] fell in the range of 1.01 to 1.3; with T-cell [3], 1.01 to 2.5. The fold induction at 4 µM in the assay on T-cell [1] fell in the range of 1.01 to 1.3; in the assay on T-cell [3], 2.51 to 5. The IC50 is below 100 nM at Cbl-b [2] and at most 100 nM on Cbl-b [4]. The compound also yielded a Kd on Cbl-b (residues 36-427) of 100 to 300 nM.
With `C[C@H](Sc1nncn1C)c1cccc(NC(=O)c2cccc(C3CC3)n2)c1` [Compound 72, (S)-6-cyclopropyl-N-(3-(1-((4-methyl-4H-1,2,4-triazol-3-yl)thio)ethyl)phenyl)picolinamide], in the assay on T-cell [1], the fold induction at 0.3 µM fell in the range of 1.31 to 1.5, the fold induction at 1 µM lay in the range of 1.51 to 1.75 and the fold induction at 4 µM was in the range of 1.51 to 1.75. Moreover, the IC50 on Cbl-b [2] is below 100 nM. The compound further displayed a Kd at Cbl-b (residues 36-427) of 100 to 300 nM. In addition, in the assay with T-cell [3], the fold induction at 0.3 µM was 1.01 to 2.5, the fold induction at 1 µM lay within 2.51 to 5 and the fold induction at 4 µM is 2.51 to 5. Moreover, on Cbl-b [4], the IC50 was at most 100 nM.
As to `C[C@H](Sc1nncn1C)c1cccc(NC(=O)c2ccnc(C3CC3)n2)c1` [Compound 76, 2-cyclopropyl-A-[3-[(1S)-1-[(4-methyl-1,2,4-triazol-3-yl)sulfanyl]ethyl]phenyl]pyrimidine-4-carboxamide], in the assay with T-cell [1], the fold induction at 0.3 µM lay in the range of 1.01 to 1.3, the fold induction at 1 µM was in the range of 1.01 to 1.3 and the fold induction at 4 µM was in the range of 1.31 to 1.5. Besides, the IC50 at Cbl-b [2] was below 100 nM. The Kd at Cbl-b (residues 36-427) is 100 to 300 nM. Also, in the assay on T-cell [3], the fold induction at 0.3 µM was below 1, the fold induction at 1 µM lay within 2.51 to 5 and the fold induction at 4 µM is 5 to 7.5. Further, on Cbl-b [4], the IC50 was at most 100 nM.
Take `C[C@H](Sc1nncn1C)c1cccc(NC(=O)c2ccc(CO)c(C3CC3)n2)c1` [Compound 89, 6-cyclopropyl-5-(hydroxymethyl)-N-[3-[(1S)-1-[(4-methyl-1,2,4-triazol-3-yl)sulfanyl]ethyl]phenyl]pyridine-2-carboxamide]: the fold induction at 0.3 µM in the assay with T-cell [1] is 1.01 to 1.3; in the assay with T-cell [3], 1.01 to 2.5. Also, the fold induction at 1 µM with T-cell [1] was in the range of 1.01 to 1.3; with T-cell [3] it was 2.51 to 5. Also, the results for the fold induction at 4 µM in the assay on T-cell [1] and with T-cell [3] were 1.31 to 1.5 and 5 to 7.5, respectively. Moreover, the IC50 on Cbl-b [2] is below 100 nM; at Cbl-b [4] it was at most 100 nM. This compound also yielded an equilibrium dissociation constant (Kd) on Cbl-b (residues 36-427) of 100 to 300 nM.
For the compound `C[C@H](Sc1nncn1C)c1cccc(NC(=O)c2ccc(F)c(C3CC3)n2)c1` [Compound 91, 6-Cyclopropyl-5-fluoro-N-[3-[(1S)-1-[(4-methyl-1,2,4-triazol-3-yl)sulfanyl]ethyl]phenyl]pyridine-2-carboxamide], in the assay with T-cell [1], the fold induction at 0.3 µM is below 1, the fold induction at 1 µM is below 1 and the fold induction at 4 µM was 1.01 to 1.3. In addition, the IC50 at Cbl-b [2] is below 100 nM. Besides, at Cbl-b (residues 36-427), the Kd is 100 to 300 nM. In addition, in the assay on T-cell [3], the fold induction at 0.3 µM lay in the range of 1.01 to 2.5, the fold induction at 1 µM was 2.51 to 5 and the fold induction at 4 µM was above 7.5. The IC50 on Cbl-b [4] was at most 100 nM.
In the case of `C[C@H](Sc1nncn1C)c1cccc(NC(=O)c2ccc(C#N)c(C3CC3)n2)c1` [Compound 92, 5-cyano-6-cyclopropyl-N-[3-[(1S)-1-[(4-methyl-1,2,4-triazol-3-yl)sulfanyl]ethyl]phenyl]pyridine-2-carboxamide], in the assay on T-cell [1], the fold induction at 0.3 µM lay in the range of 1.01 to 1.3, the fold induction at 1 µM was in the range of 1.31 to 1.5 and the fold induction at 4 µM is 1.31 to 1.5. Besides, the half-inhibitory concentration (IC50) on Cbl-b [2] was below 100 nM. The Kd at Cbl-b (residues 36-427) lay in the range of 100 to 300 nM. In the assay on T-cell [3], the fold induction at 0.3 µM is 1.01 to 2.5, the fold induction at 1 µM lay in the range of 2.51 to 5 and the fold induction at 4 µM lay in the range of 5 to 7.5. Besides, the IC50 at Cbl-b [4] was at most 100 nM.
As for `COc1ccc(C(=O)Nc2cccc([C@H](C)Sc3nncn3C)c2)nc1C1CC1` [Compound 93, 6-cyclopropyl-5-methoxy-N-[3-[(1S)-1-[(4-methyl-1,2,4-triazol-3-yl)sulfanyl]ethyl]phenyl]pyridine-2-carboxamide], in the assay on T-cell [1], the fold induction at 0.3 µM is 1.01 to 1.3, the fold induction at 1 µM fell in the range of 1.01 to 1.3 and the fold induction at 4 µM fell in the range of 1.01 to 1.3. Further, at Cbl-b [2], the IC50 is below 100 nM. On Cbl-b (residues 36-427), this compound returned a Kd of 100 to 300 nM. Further, in the assay with T-cell [3], the fold induction at 0.3 µM is 1.01 to 2.5, the fold induction at 1 µM fell in the range of 1.01 to 2.5 and the fold induction at 4 µM fell in the range of 2.51 to 5. Besides, the IC50 on Cbl-b [4] is at most 100 nM.
As for `C[C@H](Cc1nncn1C)c1cccc(NC(=O)c2cccc(C(F)(F)F)n2)c1` [Compound 183a, (R)-N-(3-(1-(4-methyl-4H-1,2,4-triazol-3-yl)propan-2-yl)phenyl)-6-(trifluoromethyl)picolinamide], the fold induction at 0.3 µM with T-cell [1] was above 1.76; with T-cell [3], 2.51 to 5. The fold induction at 1 µM is above 1.76 in the assay with T-cell [1] and 5 to 7.5 with T-cell [3]. For the same compound, the figures for the fold induction at 4 µM in the assay with T-cell [1] and in the assay with T-cell [3] were above 1.76 and above 7.5, respectively. The IC50 on Cbl-b [2] was below 100 nM; at Cbl-b [4], at most 100 nM. At Cbl-b (residues 36-427), the Kd is 100 to 300 nM.
On to `C[C@H](Cc1nncn1C)c1cccc(NC(=O)c2cc(C3CC3)cc(C(F)(F)F)n2)c1` [Compound 191, (R)-4-cyclopropyl-N-(3-(1-(4-methyl-4H-1,2,4-triazol-3-yl)propan-2-yl)phenyl)-6-(trifluoromethyl)picolinamide], for which, in the assay on T-cell [1], the fold induction at 0.3 µM lay within 1.31 to 1.5, the fold induction at 1 µM fell in the range of 1.51 to 1.75 and the fold induction at 4 µM lay within 1.51 to 1.75. The IC50 at Cbl-b [2] was below 100 nM. The Kd at Cbl-b (residues 36-427) is below 100 nM. Further, in the assay on T-cell [3], the fold induction at 0.3 µM fell in the range of 2.51 to 5, the fold induction at 1 µM lay within 5 to 7.5 and the fold induction at 4 µM was above 7.5. Also, the IC50 at Cbl-b [4] is at most 100 nM.
As for `C[C@H](Cc1nncn1C)c1cccc(NC(=O)c2cc(C3CC3)nc(C3CC3)n2)c1` [Compound 193, (R)-2,6-dicyclopropyl-N-(3-(1-(4-methyl-4H-1,2,4-triazol-3-yl)propan-2-yl)phenyl)pyrimidine-4-carboxamide], in the assay on T-cell [1], the fold induction at 0.3 µM lay in the range of 1.01 to 1.3, the fold induction at 1 µM is 1.51 to 1.75 and the fold induction at 4 µM was in the range of 1.51 to 1.75. Also, on Cbl-b [2], the IC50 is below 100 nM. Besides, the Kd at Cbl-b (residues 36-427) was below 100 nM. Moreover, in the assay on T-cell [3], the fold induction at 0.3 µM fell in the range of 2.51 to 5, the fold induction at 1 µM lay within 5 to 7.5 and the fold induction at 4 µM was above 7.5. Moreover, the IC50 at Cbl-b [4] was at most 100 nM.
Regarding `Cc1cc(C(=O)Nc2cccc([C@H](C)Cc3nncn3C)c2)nc(C(F)(F)F)n1` [Compound 194, (R)-6-methyl-N-(3-(1-(4-methyl-4H-1,2,4-triazol-3-yl)propan-2-yl)phenyl)-2-(trifluoromethyl)pyrimidine-4-carboxamide], in the assay with T-cell [1], the fold induction at 0.3 µM is 1.01 to 1.3, the fold induction at 1 µM lay in the range of 1.51 to 1.75 and the fold induction at 4 µM is above 1.76. Moreover, the IC50 at Cbl-b [2] was below 100 nM. The same compound came in with a Kd on Cbl-b (residues 36-427) of 100 to 300 nM. In the assay with T-cell [3], the fold induction at 0.3 µM fell in the range of 2.51 to 5, the fold induction at 1 µM is above 7.5 and the fold induction at 4 µM was above 7.5. For the same compound, the IC50 on Cbl-b [4] was at most 100 nM.
For the compound `Cc1cc(C(=O)Nc2cccc([C@H](C)Cc3nncn3C)c2)nc(C2CC2)n1` [Compound 195, (R)-2-cyclopropyl-6-methyl-N-(3-(1-(4-methyl-4H-1,2,4-triazol-3-yl)propan-2-yl)phenyl)pyrimidine-4-carboxamide], in the assay on T-cell [1], the fold induction at 0.3 µM lay within 1.51 to 1.75, the fold induction at 1 µM was above 1.76 and the fold induction at 4 µM is above 1.76. Further, on Cbl-b [2], the IC50 is below 100 nM. The same compound registered a Kd at Cbl-b (residues 36-427) below 100 nM. In the assay on T-cell [3], the fold induction at 0.3 µM was 5 to 7.5, the fold induction at 1 µM is above 7.5 and the fold induction at 4 µM was above 7.5. Moreover, the IC50 at Cbl-b [4] was at most 100 nM.
